Reference: patent US20180064714A1 (Mylan Laboratories Ltd, priority 2015, published 2018)

Experiments:
[1] = Physical and chemical stability on storage, analysed by PXRD for polymorph integrity; type: physicochemical
Procedure: The Cu-anode X-ray tube was operated at 40 kV and 30 mA. The experiments were conducted over the 2θ range of 2.0°-50.0°, 0.030° step size and 0.4 seconds step time.
The Cu-anode X-ray tube was operated at 40 kV and 30 mA. The experiments were conducted over the […] of 2.0°-50.0°, 0.030° step size and 0.4 seconds step time.
As used herein, a compound or pharmaceutical composition is considered “stable” where the HPLC purity of the compound or premix changes by less than about 1% when stored at 5° C.±3° C. and/or at 25° C./60% relative humidity (RH). In certain embodiments, the “stable” compound or premix is stored at 5° C.±3° C. In other embodiments, the “stable” compound or premix is stored at 25° C./60% relative humidity (RH).

[2] = cited from earlier work

| Initial PXRD analysis ([1]; at 5° C. ± 3° C.) | Initial PXRD analysis ([1]; at 25° C./60% RH) | Initial PXRD analysis ([1]; at 40° C./75% RH) | Compound | Solubility in water [2] |
| --- | --- | --- | --- | --- |
| Amorphous | Amorphous | Amorphous | CC[C@H](Nc1ncnc2nc[nH]c12)c1nc2cccc(F)c2c(=O)n1-c1ccccc1 [Amorphous Idelalisib, 5-fluoro-3-phenyl-2-[(1S)-1-(7H-purin-6-ylamino)propyl]-4(3H)-quinazolinone] | – |
| – | – | – | CC[C@H](Nc1ncnc2[nH]cnc12)c1nc2cccc(F)c2c(=O)n1-c1ccccc1 [Idelalisib, 5-fluoro-3-phenyl-2-[(1S)-1-(7H-purin-6-ylamino)propyl]-4(3H)-quinazolinone] | poorly soluble |
